Test results: patent US8048880B2, “Treatment of cardiovascular disease and dyslipidemia using secretory phospholipase A2 (SPLA2) inhibitors and SPLA2 inhibitor combination therapies” (Anthera Pharmaceuticals, Inc., priority 2007, dated 2011)

Assays:
[1] = test system: human subjects with CVD, specifically stable CAD; assay: Serum lipid levels and LDL particle size in humans, A-002 once a day for eight weeks (Example 6); assay type: in vivo; details: for % change vs. baseline (mean LDL particle size) / % change vs. baseline (mean [non-HDL cholesterol]) / % change vs. baseline (mean [total cholesterol]) / % change vs. baseline (median [ApoB]) / % change vs. baseline (median [TG]) / % change vs. baseline (median [oxidized LDL]) / % change vs. baseline (median [small LDL particle]) / Change in mean LDL particle size vs. baseline / Change in mean [non-HDL cholesterol] vs. baseline / Change in mean [total cholesterol] vs. baseline / Change in median [ApoB] vs. baseline / Change in median [TG] vs. baseline / Change in median [oxidized LDL] vs. baseline / Change in median [small LDL particle] vs. baseline / % change vs. baseline (mean [LDL]) / Change in mean [LDL] vs. baseline: week 8
ApoE−/− mice [2] = assay: Plasma total cholesterol levels in ApoE−/− mice on high fat diet (Example 1); assay type: in vivo; details: at 16 weeks
Description: (§1) Male ApoE^−/− mice were fed a high fat diet (21% fat, 0.15% cholesterol, 19.5% casein) ad libitum for two weeks in order to acclimate to the diet. Plasma cholesterol levels and body weight were measured in order to obtain baseline levels, and mice were randomized into three groups of 20 mice based on these measurements. After the acclimation period, mice remained on the high fat diet and were administered A-002 (30 mg/kg or 90 mg/kg) or vehicle only (5% acacia) twice a day for 16 weeks by oral gavage.
Plasma cholesterol levels and body weight were measured at 4, 8, 12, and 16 weeks after the start of A-002 administration. Comparisons of measurements between test and control mice at each time period were performed using a two-way analysis of variance test (ANOVA) for repeated measures, followed by post-hoc Bonferroni test for significance.

ApoE−/− mice [3] = assay: Atherosclerotic plaque coverage of the aorta in ApoE−/− mice (Example 1); assay type: in vivo; details: at 16 weeks
Description: as §1
At the end of the 16th week, mice were sacrificed and plasma samples, heart tissue, and aortas from the heart to approximately 3 mm distal to the iliac bifurcation were collected. Aortas were placed on microscope slides and stained with Oil Red O for scanning and image analysis of atherosclerotic lesion size. Vessel images were captured using a Microtek Scanmaker 9600XL scanner (Microtek, Carson, Calif.) and Photoshop 6.0 software (Adobe Systems Inc., San Jose, Calif.). Atherosclerotic plaque coverage was quantified for the entire length of the vessel including the arch using Image-Pro Plus software. Vessels were also analyzed for plaque coverage in the descending abdominal aorta, starting in the region of the first intercostal branches to the iliac bifurcation (not including the arch). Plaque content was expressed as a percent of the aortic surface. […]

CRP [4] = assay: Serum CRP concentration in humans, A-002 twice a day (Example 4); assay type: in vivo, human; details: week 8
Description: 204 human subjects from the United States with CVD, specifically stable coronary artery disease, were randomized to receive placebo or A-002 via oral administration twice a day over an eight week administration period at dosages of 50 mg, 100 mg, 250 mg, or 500 mg. Levels of various lipids and inflammatory markers were measured at the outset of the trial and at the end of weeks four and/or eight. For data sets with a normal distribution, mean levels of lipids or inflammatory markers were analyzed. For data sets with non-normal distribution, median levels were analyzed. […] In addition, administration of A-002 decreased median levels of CRP (Table 11).
Serum TG, CRP, and IL-6 levels were measured at eight weeks in 86 subjects from the ITT population diagnosed with metabolic syndrome.

CRP [5] = assay: Serum CRP concentration in humans, A-002 once a day (Example 6); assay type: in vivo, human; details: week 8
Description: 135 human subjects over the age of 18 with CVD, specifically stable CAD, were randomized to receive either placebo or one of two dosages (250 mg or 500 mg) of A-002 via once a day oral administration over an eight week time period. 89 of the subjects received A-002, while 46 of the subjects received placebo. Subjects that were receiving statins or other compounds used in the treatment of CVD at the outset of the trial continued to receive those therapeutics throughout the trial. 121 of the 135 subjects were on statins during the trial. There was little variation between dosage groups with respect to age, height, weight, or BMI.
Levels of various lipids and inflammatory markers were measured at the outset of the trial and at weeks two, four, and/or eight weeks after the start of A-002 administration. In addition, plasma A-002 levels were measured at various intervals. Lipids that were measured included LDL, small LDL particle, oxidized LDL, non-HDL cholesterol, total cholesterol, ApoB, and triglycerides. In addition, levels of the inflammatory marker CRP were measured. Lipid and inflammatory marker levels at each timepoint were compared to the baseline measurements to determine the effect of A-002 administration. For data sets with a normal distribution, mean levels of lipids or inflammatory markers were analyzed. For data sets with non-normal distribution, median levels were analyzed. LDL particle size was also assessed.

[6] = ITT population, A-002 once a day
[7] = serum, ITT population, A-002 250 or 500 mg once a day
[8] = statin subpopulation with baseline serum LDL greater than 70 mg/dl, A-002 once a day
[9] = statin subpopulation, A-002 once a day
[10] = metabolic syndrome subpopulation
[11] = statin subpopulation with baseline serum LDL greater than 70 mg/dl

## CCc1c(C(=O)C(N)=O)c2c(OCC(=O)OC)cccc2n1Cc1ccccc1 [A-002, [[3-(2-Amino-1,2-dioxoethyl)-2-ethyl-1-(phenylmethyl)-1H-indol-4-yl]oxy]acetic acid methyl ester]
[1]; A-002 once a day, expected once additional non-statin controls are obtained
  combined effect of A-002 and statins on LDL levels versus either compound alone: synergistic decrease in LDL levels
[1]; [6]
  % change vs. baseline (mean LDL particle size): +0.6%
  % change vs. baseline (mean [non-HDL cholesterol]): −9.9%
  % change vs. baseline (mean [total cholesterol]): −7.3%
  % change vs. baseline (median [ApoB]): −11.9%
  % change vs. baseline (median [TG]): −9.8%
  % change vs. baseline (median [oxidized LDL]): −3.6%
  % change vs. baseline (median [small LDL particle]): −9.1%
  Change in mean LDL particle size vs. baseline: +0.11 nm
  Change in mean [non-HDL cholesterol] vs. baseline: -10.5 mg/dL
  Change in mean [total cholesterol] vs. baseline: -11.5 mg/dL
  Change in median [ApoB] vs. baseline: -8.1 mg/dL
  Change in median [TG] vs. baseline: -13.0 mg/dL
  Change in median [oxidized LDL] vs. baseline: −1.4 U/L
  Change in median [small LDL particle] vs. baseline: -74.0 nmol/L
[1]; [7]
  % change vs. baseline (mean [LDL]): −8.3%
  Change in mean [LDL] vs. baseline: -7.1 mg/dL
[1]; [8]
  % change vs. baseline (mean LDL particle size): +1.0%
  % change vs. baseline (mean [LDL]): −15.0%
  % change vs. baseline (mean [non-HDL cholesterol]): −13.7%
  % change vs. baseline (mean [total cholesterol]): −10.5%
  % change vs. baseline (median [ApoB]): −18.7%
  % change vs. baseline (median [oxidized LDL]): −5.6%
  % change vs. baseline (median [small LDL particle]): −12.3%
  Change in mean LDL particle size vs. baseline: +0.19 nm
  Change in mean [LDL] vs. baseline: -13.9 mg/dL
  Change in mean [non-HDL cholesterol] vs. baseline: -16.7 mg/dL
  Change in mean [total cholesterol] vs. baseline: -18.0 mg/dL
  Change in median [ApoB] vs. baseline: -13.1 mg/dL
  Change in median [oxidized LDL] vs. baseline: −2.8 U/L
  Change in median [small LDL particle] vs. baseline: -115.0 nmol/L
[1]; [9]
  % change vs. baseline (mean LDL particle size): +0.5%
  % change vs. baseline (mean [LDL]): −8.2%
  % change vs. baseline (mean [non-HDL cholesterol]): −9.9%
  % change vs. baseline (mean [total cholesterol]): −7.3%
  % change vs. baseline (median [ApoB]): −11.9%
  % change vs. baseline (median [TG]): −10.9%
  % change vs. baseline (median [oxidized LDL]): −2.9%
  % change vs. baseline (median [small LDL particle]): −8.2%
  Change in mean LDL particle size vs. baseline: +0.10 nm
  Change in mean [LDL] vs. baseline: -6.7 mg/dL
  Change in mean [non-HDL cholesterol] vs. baseline: -10.1 mg/dL
  Change in mean [total cholesterol] vs. baseline: -11.2 mg/dL
  Change in median [ApoB] vs. baseline: -7.9 mg/dL
  Change in median [TG] vs. baseline: -13.0 mg/dL
  Change in median [oxidized LDL] vs. baseline: −1.1 U/L
  Change in median [small LDL particle] vs. baseline: -66.0 nmol/L
ApoE−/− mice [2]; 30 mg/kg A-002 twice a day
  change from baseline in total cholesterol: −10%
ApoE−/− mice [2]; 90 mg/kg A-002 twice a day
  change from baseline in total cholesterol: −12%
ApoE−/− mice [3]; 30 mg/kg A-002 twice a day
  plaque coverage in aortic tissue: 6.3%
ApoE−/− mice [3]; 90 mg/kg A-002 twice a day
  plaque coverage in aortic tissue: 6.8%
CRP [4]; [10]
  % change vs. baseline (median [CRP]): −12.50%
  Change in median [CRP] vs. baseline: -0.3 mg/L
CRP [4]; serum, ITT population
  % change vs. baseline (median [CRP]): −13.33%
  Change in median [CRP] vs. baseline: -0.20 mg/L
CRP [5]; ITT population
  % change vs. baseline (median [CRP]): +5.4%
CRP [5]; [11]
  % change vs. baseline (median [CRP]): +9.1%
  Change in median [CRP] vs. baseline: +0.10 mg/L
CRP [5]; statin subpopulation
  % change vs. baseline (median [CRP]): +8.7%
  Change in median [CRP] vs. baseline: +0.10 mg/L
